The assay concerns IRE1-XBP1s (XBP1-RLuc splicing reporter in HEK293 T-REx cells). Briefly: IRE1-XBP1s activation assay (XBP1-RLuc splicing reporter, HEK293 T-REx cells, luminescence relative to thapsigargin). It counts as cell-based. The conditions noted are these: 18 h, read-out: Activity (IRE1-XBP1s activation, luminescence as % signal relative to thapsigargin, % Tg). Here is the method: IRE1-XBP1s activation Assay: HEK293 T-REx cells stably expressing the XBP1-RLuc splicing reporter were treated with an IRE1-XBP1s activator provided herein (10 μM) in the presence or absence of the IRE1 active site inhibitor 4μ8C (32 μM) for 18 h. Luminescence was shown as the percentage signal relative to thapsigargin (Tg) (500 nM, 18 h).

[1] abbreviates: compound 10 μM, HEK293 T-REx XBP1-RLuc reporter cells, relative to thapsigargin (Tg) 500 nM.

Counter-ions that a name gives are not always drawn. Like-named read-outs stand apart in the source and are kept apart here.

Regarding `Cc1ccc(OCCN(C)C(=O)Cn2cc(NC(=O)C3(CNc4ccc(F)nc4C)CC3)cn2)cc1` [Compound 293, 1-(((6-fluoro-2-methylpyridin-3-yl)amino)methyl)-N-(1-(2-(methyl (2-(p-tolyloxy)ethyl)amino)-2-oxoethyl)-1H-pyrazol-4-yl)cyclopropane-1-carboxamide], the activation at 10 µM under setting [1] is below 30%.
Consider `COc1ccnc(NCCC(=O)Nc2cnn(CC(=O)N(C)CCOc3ccc(C)cc3)c2)c1` [Compound 175], for which the activation at 10 µM under setting [1] lay in the range of 30 to 50%.
As for `Cc1ccc(OCCN(C)C(=O)Cn2cc(NC(=O)CCOc3cccnc3C)cn2)cc1` [Compound 13], the activation at 10 µM under setting [1] fell in the range of 30 to 50%.
Turning to `Cc1ccc(OCCN(C)C(=O)Cn2cc(NC(=O)CCOc3ccc(F)cc3C(F)(F)F)cn2)cc1` [Compound 60], under setting [1], the activation at 10 µM is below 30%.
As to `Cc1ccc(OCCN(C)C(=O)Cn2cc(NC(=O)CNC(=O)c3ccncc3)cn2)cc1` [Compound 259], under setting [1], the activation at 10 µM is below 30%.
Take `Cc1ccc(OCCN(C)C(=O)Cn2cc(NC(=O)CCNc3cc(F)ncc3F)cn2)cc1` [Compound 143]: under setting [1], the activation at 10 µM was below 30%.
Turning to `Cc1ccc(OCCC(=O)Nc2cnn(CC(=O)N(C)CCOc3ccc(C4(F)CC4)cc3)c2)c(F)c1` [Compound 89], under setting [1], the activation at 10 µM is below 30%.
Regarding `Cc1ccc(OCCN(C)C(=O)Cn2cc(NC(=O)CCNc3ccnc4nccn34)cn2)cc1` [Compound 227], the activation at 10 µM under setting [1] is below 30%.
Regarding `Cc1ccc(OCCN(C)C(=O)Cn2cc(NC(=O)CCNc3c(F)cnc(C)c3C)cn2)cc1` [Compound 215], the activation at 10 µM under setting [1] is above 50%.
As for `Cc1ccc(OCCN(C)C(=O)Cn2cc(NC(=O)CCOc3ccc(F)cc3C(C)C)cn2)cc1` [Compound 66], the activation at 10 µM under setting [1] was above 50%.
On to `Cc1ccc(OCCN(C)C(=O)Cn2cc(NC(=O)CCOc3cccc(Br)n3)cn2)cc1` [Compound 100], for which the activation at 10 µM under setting [1] is above 50%.
For the compound `Cc1ccc(OCCN(C)C(=O)Cn2cc(NC(=O)CCOc3ccnc(Br)c3)cn2)cc1` [Compound 98], the activation at 10 µM under setting [1] is above 50%.
On to `CN(CCOc1cc(Cl)ccn1)C(=O)Cn1cc(NC(=O)CCOc2ccccc2F)cn1` [Compound 47], for which, under setting [1], the activation at 10 µM was below 30%.
With `Cc1ccc(OCCN(C)C(=O)Cn2cc(NC(=O)CCNc3ccc(O)nc3)cn2)cc1` [Compound 255], the activation at 10 µM under setting [1] is below 30%.
Same read-out and setting: then `Cc1ccc(OCCN(C)C(=O)Cn2cc(NC(=O)[C@H](CNc3ccc(F)nc3C)C(C)C)cn2)cc1` [Compound 172], with 30 to 50%.
`Cc1ccc(OC[C@@H](C)N(C)C(=O)Cn2cc(NC(=O)CCNc3ccnc(O)n3)cn2)cc1` [Compound 266]: the activation at 10 µM under setting [1] is below 30%.
Take `Cc1ccc(OCCN(C)C(=O)Cn2cc(NC(=O)CCOc3ccccc3C)cn2)cc1` [Compound 34]: under setting [1], the activation at 10 µM is above 50%.
On to `Cc1ccc(OCCN(C)C(=O)Cn2cc(NC(=O)CCNc3nccc(F)n3)cn2)cc1` [Compound 139], for which the activation at 10 µM under setting [1] is below 30%.
The same measure, in the same setting: then `Cc1ccc(OCCN(C)C(=O)Cn2cc(NC(=O)CCNc3ccncc3Cl)cn2)cc1` [Compound 182], with above 50%; and `Cc1ccc(OCCN(C)C(=O)Cn2cc(NC(=O)/C=C/Oc3c(Cl)ccnc3C)cn2)cc1` [Compound 115], with below 30%.
As for `Cc1ccc(OCCN(C)C(=O)Cn2cc(NC(=O)CCNc3cnc4c(c3)OCO4)cn2)cc1` [Compound 295, 3-([1, 3]dioxolo[4,5-b]pyridin-6-ylamino)-N-(1-(2-(methyl (2-(p-tolyloxy)ethyl)amino)-2-oxoethyl)-1H-pyrazol-4-yl)propanamide], the activation at 10 µM under setting [1] is above 50%.
Regarding `COC(=O)Nc1cc(OCCC(=O)Nc2cnn(CC(=O)N(C)CCOc3ccc(C)cc3)c2)ccn1` [Compound 262], the activation at 10 µM under setting [1] fell in the range of 30 to 50%.
`Cc1ccc(OCCN(C)C(=O)Cn2cc(NC(=O)CCNc3cc(Cl)ccn3)cn2)cc1` [Compound 145]: under setting [1], the activation at 10 µM was below 30%.
Same read-out and setting: then `Cc1ccc(OCCN(C)C(=O)Cn2cc(NC(=O)CCN(C(=O)OC(C)(C)C)c3ccccc3)cn2)cc1` [Compound 23], with below 30%.
Take `Cc1ccc(OCCN(C)C(=O)Cn2cc(NC(=O)CCNc3cc4c(cn3)OCO4)cn2)cc1` [Compound 291]: under setting [1], the activation at 10 µM is 30 to 50%.
For the compound `Cc1ccc(OCCN(C)C(=O)Cn2cc(NC(=O)CCNc3nc(Cl)ns3)cn2)cc1` [Compound 134], the activation at 10 µM under setting [1] was above 50%.
As to `Cc1ccc(OCCN(C)C(=O)Cn2cc(NC(=O)CCNc3ccc(C#N)nc3C)cn2)cc1` [Compound 176], the activation at 10 µM under setting [1] is below 30%.
On to `CN(CCc1ccc(Cl)cc1)C(=O)Cn1cc(NC(=O)CCOc2ccccc2)cn1` [Compound 22, N-(1-(2-((4-chlorophenethyl)(methyl)amino)-2-oxoethyl)-1H-pyrazol-4-yl)-3-phenoxypropanamide hydrochloride], for which the activation at 10 µM is below 30%.
As to `CN(CCOc1cc(C(F)F)on1)C(=O)Cn1cc(NC(=O)CCNc2ccnc(F)n2)cn1` [Compound 272], the activation at 10 µM under setting [1] is below 30%.
In the case of `Cc1ccc(OCCN(C)C(=O)Cn2cc(NC(=O)CCOc3ccnc(N)n3)cn2)cc1` [Compound 99], the activation at 10 µM under setting [1] is above 50%.
`Cc1ccc(OCCN(C)C(=O)Cn2cc(NC(=O)CCOc3ccc(F)nc3C)cn2)cc1` [Compound 10]: under setting [1], the activation at 10 µM was in the range of 30 to 50%.
The same measure, in the same setting: then `Cc1ccc(OCCN(C)C(=O)Cn2cc(NC(=O)CCNc3nc(C)ncc3C(C)C)cn2)cc1` [Compound 210], with above 50%; and `Cc1ccc(OCCN(C)C(=O)Cn2cc(NC(=O)CCNc3cnc(F)c(Cl)c3)cn2)cc1` [Compound 184], with above 50%.
Turning to `Cc1ccc(OCCN(C)C(=O)Cn2cc(NC(=O)[C@@H](C)CNc3nccc(F)n3)cn2)cc1` [Compound 223], under setting [1], the activation at 10 µM is above 50%.
For `Cc1ccc(OCCN(C)C(=O)Cn2cc(NC(=O)CCOc3ccc(C#N)cc3)cn2)cc1` [Compound 20, 3-(4-cyanophenoxy)-N-(1-(2-(methyl(2-(p-tolyloxy)ethyl)amino)-2-oxoethyl)-1H-pyrazol-4-yl)propanamide], the activation at 10 µM was below 30%.
For `Cc1ccc(OCCC(=O)Nc2cnn(CC(=O)N(C)CCOc3ccc(C(F)(F)F)cc3)c2)c(F)c1` [Compound 67], the activation at 10 µM under setting [1] is below 30%.
Same read-out and setting: the value for `Cc1ccc(OCCN(C)C(=O)Cn2cc(NC(=O)[C@H](C)CNc3ccc(F)nc3C)cn2)cc1` [Compound 170] was 30 to 50%; that for `CN(CCOc1ccc(Cl)nc1)C(=O)Cn1cc(NC(=O)CCOc2ccccc2F)cn1` [Compound 45] was 30 to 50%.
Turning to `Cc1ccc(OCCN(C)C(=O)Cn2cc(NC(=O)COc3cccc4cccnc34)cn2)cc1` [Compound 287, N-methyl-2-(4-(2-(quinolin-8-yloxy)acetamido)-1H-pyrazol-1-yl)-N-(2-(p-tolyloxy)ethyl)acetamide], the activation at 10 µM was below 30%.
On to `Cc1nc(F)ccc1NCCC(=O)Nc1cnn(CC(=O)N(C)CCOc2ccn(C)n2)c1` [Compound 242], for which the activation at 10 µM under setting [1] is below 30%.
With `Cc1ccc(OCCN(C)C(=O)Cn2cc(NC(=O)CCOc3ncccc3N)cn2)cc1` [Compound 114], the activation at 10 µM under setting [1] was above 50%.
Regarding `Cc1ccc(OCCN(C)C(=O)Cn2cc(NC(=O)COc3ccc4ccccc4n3)cn2)cc1` [Compound 288], the activation at 10 µM under setting [1] is below 30%.
Consider `Cc1cnc(OCCN(C)C(=O)Cn2cc(NC(=O)CCNc3ccc(F)nc3C)cn2)nc1` [Compound 244], for which the activation at 10 µM under setting [1] is below 30%.
Consider `Cc1ccc(OCCN(C)C(=O)Cn2cc(NC(=O)[C@@H](C)CNc3ccnc(F)n3)cn2)cc1` [Compound 224], for which, under setting [1], the activation at 10 µM is above 50%.
For `Cc1ccc(OCCC(=O)Nc2cnn(CC(=O)N(C)CCOc3ncc(F)cc3F)c2)c(F)c1` [Compound 80], the activation at 10 µM under setting [1] was below 30%.
For the compound `Cc1ccc(OCCN(C)C(=O)Cn2cc(NC(=O)CCNc3ccncc3)cn2)cc1` [Compound 155], the activation at 10 µM under setting [1] was below 30%.
With `Cc1ccc(OCCC(=O)Nc2cnn(CC(=O)N(C)CCOc3ccc(C4CC4)cc3)c2)c(F)c1` [Compound 73], the activation at 10 µM under setting [1] lay in the range of 30 to 50%.
As for `Cc1ccc(OCCN(C)C(=O)Cn2cc(NC(=O)CCNc3ncccn3)cn2)cc1` [Compound 138], the activation at 10 µM under setting [1] was above 50%.
Still for that read-out and setting: the value for `Cc1ccc(OCCN(C)C(=O)Cn2cc(NC(=O)CCOc3c(C)cc(F)cc3C)cn2)cc1` [Compound 58] was 30 to 50%; that for `Cc1ccc(OCCN(C)C(=O)Cn2cc(NC(=O)CCOc3c(F)cncc3Br)cn2)cc1` [Compound 97] was below 30%.
In the case of `Cc1ccc(OCCN(C)C(=O)Cn2cc(NC(=O)CCOC3CCC(C)(C)CC3)cn2)cc1` [Compound 3, 3-((4,4-dimethylcyclohexyl)oxy)-N-(1-(2-(methyl(2-(p-tolyloxy)ethyl)amino)-2-oxoethyl)-1H-pyrazol-4-yl)propanamide], under setting [1], the activation at 10 µM was above 50%.
Turning to `Cc1ccc(OCCN(C)C(=O)Cn2cc(NC(=O)COCc3cccnc3N)cn2)cc1` [Compound 84], the activation at 10 µM under setting [1] is below 30%.
On to `C=C(C)c1cccc(OCCC(=O)Nc2cnn(CC(=O)N(C)CCOc3ccc(C)cc3)c2)n1` [Compound 107], for which, under setting [1], the activation at 10 µM is below 30%.
As to `Cc1ccc(OCCN(C)C(=O)Cn2cc(NC(=O)CCOc3ccc(Cl)cc3F)cn2)cc1` [Compound 48], the activation at 10 µM under setting [1] is below 30%.
Consider `CCc1ccc(OCCN(C)C(=O)Cn2cc(NC(=O)CCOc3ccccc3F)cn2)cc1` [Compound 52], for which, under setting [1], the activation at 10 µM lay within 30 to 50%.
On the same count and under the same terms, the value for `Cc1ccc(OCCN(C)C(=O)Cn2cc(NC(=O)CCNc3c(Cl)cncc3Cl)cn2)cc1` [Compound 152] was above 50%; that for `Cc1ccc(OCCC(=O)Nc2cnn(CC(=O)N(C)CCOc3ccc(C(F)F)cc3)c2)c(F)c1` [Compound 86] was above 50%.

The values above are taken from patent publication US20260193236A1 (Protego Biopharma, Inc., priority 2022, published 2026).
